SMILES strings stand for the structures.

`CC(C)c1nn(-c2ccc(C(F)(F)F)cn2)cc1CCCCOc1cc(CCC(=O)O)n(C)n1` [Example 50, 3-[3-(4-{3-isopropyl-1-[5-(trifluoromethyl)-2-pyridinyl]-1H-pyrazol-4-yl}butoxy)-1-methyl-1H-pyrazol-5-yl]propanoic acid] displayed a melting point of 113 to 114 °C.

Consider `CCc1ccc(OC(C)(C)C(=O)O)cc1OCCCc1cn(-c2ccc(C(F)(F)F)cn2)nc1C(C)C` [Example 377, 2-[4-ethyl-3-(3-{3-isopropyl-1-[5-(trifluoromethyl)-2-pyridinyl]-1H-pyrazol-4-yl}propoxy)phenoxy]-2-methylpropanoic acid], for which the melting point was in the range of 115 to 116 °C.

As to `COc1cccc(CC(=O)O)c1OCCCc1cn(-c2ncc(Cl)cc2Cl)nc1C(C)C` [Example 336, (2-{3-[1-(3,5-dichloro-2-pyridyl)-3-isopropyl-1H-pyrazol-4-yl]propoxy}-3-methoxyphenyl)acetic acid], the melting point was 105 to 106 °C.

On to `CCOc1nn(-c2ccc(C(F)(F)F)cn2)cc1CCCOc1cccc(OC)c1CC(=O)O` [Example 177, [6-(3-{3-ethoxy-1-[5-(trifluoromethyl)-2-pyridyl]-1H-pyrazol-4-yl}propoxy)-2-methoxyphenyl]acetic acid], for which the melting point was in the range of 150 to 151 °C.

In turn, `CC(C)c1nn(-c2ccc(C(F)(F)F)cn2)cc1CCCCOc1ccccc1CC(=O)O` [Example 52, [2-(4-{3-isopropyl-1-[5-(trifluoromethyl)-2-pyridinyl]-1H-pyrazol-4-yl}butoxy)phenyl]acetic acid] showed a melting point of 125 to 126 °C.

Take `O=C(O)CCc1cc(OCCCc2cn(-c3ccc(C(F)(F)F)cn3)nc2C2CCCCC2)nn1C1CCCCC1` [Example 261, 3-[1-cyclohexyl-3-(3-{3-cyclohexyl-1-[5-(trifluoromethyl)-2-pyridyl]-1H-pyrazol-4-yl}propoxy)-1H-pyrazol-5-yl]propanoic acid]: the melting point fell in the range of 190 to 191 °C.

`CCCc1nn(-c2ccc(C(F)(F)F)cn2)cc1CCCOc1c(C)cnn1CC(=O)O` [Example 329, [4-methyl-5-(3-{3-propyl-1-[5-(trifluoromethyl)-2-pyridinyl]-1H-pyrazol-4-yl}propoxy)-1H-pyrazol-1-yl]acetic acid] showed a melting point of 145 to 146 °C.

`O=C(O)c1cccc(OCCCc2cc(-c3ccc(C(F)(F)F)cc3)no2)c1` [Example 4, 3-(3-{3-[4-(trifluoromethyl)phenyl]-5-isoxazolyl}propoxy)benzoic acid] came in with a melting point of 133 to 134 °C.

Turning to `CCOc1nn(-c2ccc(C(F)(F)F)cn2)cc1CCCOc1ccc(CCC(=O)O)cc1OCc1ccccc1` [Example 166, 3-[3-benzyloxy-4-(3-{3-ethoxy-1-[5-(trifluoromethyl)-2-pyridyl]-1H-pyrazol-4-yl}propoxy)phenyl]propanoic acid], the melting point was in the range of 115 to 116 °C.

Turning to `CCCc1nn(-c2ccc(C(F)(F)F)cc2)cc1CCCOc1c(CC(=O)O)cccc1OC` [Example 297, [3-methoxy-2-(3-{3-propyl-1-[4-(trifluoromethyl)phenyl]-1H-pyrazol-4-yl}propoxy)phenyl]acetic acid], the melting point was in the range of 95 to 96 °C.

For the molecule `CCCc1nn(-c2ccc(C(F)(F)F)cn2)cc1CCCOc1cccc(CCC(=O)O)c1` [Example 84, 3-[3-(3-{3-propyl-1-[5-(trifluoromethyl)-2-pyridyl]-1H-pyrazol-4-yl}propoxy)phenyl]propionic acid], the melting point fell in the range of 97 to 98 °C.

Turning to `Cc1nn(-c2ccc(C(F)(F)F)cn2)cc1COc1cccc(OC(C)(C)C(=O)O)c1` [Example 32, 2-methyl-2-(3-{3-methyl-1-[5-(trifluoromethyl)-2-pyridyl]-1H-pyrazol-4-ylmethoxy}phenoxy)propionic acid], the melting point fell in the range of 152 to 153 °C.

`CCC(CC)c1nn(-c2ccc(C(F)(F)F)cn2)cc1CCCOc1c(CC(=O)O)ccnc1C` [Example 348, [3-(3-{3-(1-ethylpropyl)-1-[5-(trifluoromethyl)-2-pyridinyl]-1H-pyrazol-4-yl}propoxy)-2-methyl-4-pyridinyl]acetic acid] yielded a melting point of 78 to 79 °C.

`CCOc1nn(-c2ccc(C(F)(F)F)cn2)cc1CCCOc1ccc(OC(C)(C)C(=O)O)cc1` [Example 18, 2-[4-(3-{3-ethoxy-1-[5-(trifluoromethyl)-2-pyridyl]-1H-pyrazol-4-yl}propoxy)phenoxy]-2-methylpropionic acid] came in with a melting point of 91 to 92 °C.

Molecule `CCCc1nn(-c2ccc(C(F)(F)F)cn2)cc1COc1cccc(CC(=O)O)c1` [Example 147, [3-({3-propyl-1-[5-(trifluoromethyl)-2-pyridyl]-1H-pyrazol-4-yl}methoxy)phenyl]acetic acid] yielded a melting point of 77 to 78 °C.

In turn, `O=C(O)CCc1cc(OCCCCc2cc(-c3ccc(C(F)(F)F)cc3)no2)nn1-c1ccccc1` [Example 11, 3-[1-phenyl-3-(4-{3-[4-(trifluoromethyl)phenyl]-5-isoxazolyl}butoxy)-1H-pyrazol-5-yl]propionic acid] had a melting point of 139 to 140 °C.

Molecule `CCCc1nn(-c2ccc(C(F)(F)F)cn2)cc1CCCOc1cc(CCC(=O)O)n(C)n1` [Example 45, 3-[1-methyl-3-(3-{3-propyl-1-[5-(trifluoromethyl)-2-pyridyl]-1H-pyrazol-4-yl}propoxy)-1H-pyrazol-5-yl]propionic acid] returned a melting point of 80 to 81 °C.

`O=C(O)CCc1ccc(OCCCCc2cc(-c3ccc(C(F)(F)F)cc3)no2)cc1` [Example 14, 3-[4-(4-{3-[4-(trifluoromethyl)phenyl]-5-isoxazolyl}butoxy)phenyl]propionic acid] came in with a melting point of 130 to 131 °C.

Molecule `O=C(O)Cc1cccc(OCc2cn(-c3ccc(C(F)(F)F)cn3)nc2C2CCCCC2)c1` [Example 187, [3-({3-cyclohexyl-1-[5-(trifluoromethyl)-2-pyridyl]-1H-pyrazol-4-yl}methoxy)phenyl]acetic acid] registered a melting point of 129 to 130 °C.

On to `O=C(O)CCc1cccc(OCc2cn(-c3ccc(C(F)(F)F)cn3)nc2C2CCCCC2)c1` [Example 191, 3-(3-{3-cyclohexyl-1-[5-(trifluoromethyl)-2-pyridyl]-1H-pyrazol-4-yl}methoxyphenyl)propionic acid], for which the melting point lay in the range of 94 to 95 °C.

Molecule `CCOc1ccc(OCCCc2cn(-c3ccc(C(F)(F)F)cn3)nc2OCC)c(CCC(=O)O)c1` [Example 140, 3-[2-(3-{3-ethoxy-1-[5-(trifluoromethyl)-2-pyridyl]-1H-pyrazol-4-yl}propoxy)-5-ethoxyphenyl]propionic acid] gave a melting point of 104 to 105 °C.

The molecule `CCOc1nn(-c2ccccn2)cc1CCCOc1cccc(OC(C)(C)C(=O)O)c1` [Example 101, 2-(3-{3-[3-ethoxy-1-(2-pyridinyl)-1H-pyrazol-4-yl]propoxy}phenoxy)-2-methylpropanoic acid] had a melting point of 99 to 101 °C.

On to `CC(C)c1nn(-c2ccc(Cl)cn2)cc1CCCOc1ccccc1CC(=O)O` [Example 308, (2-{3-[1-(5-chloro-2-pyridinyl)-3-isopropyl-1H-pyrazol-4-yl]propoxy}phenyl)acetic acid], for which the melting point lay within 141 to 142 °C.

The molecule `CC(C)c1nn(-c2ccc(C(F)(F)F)cn2)cc1CCCOc1nn(C)cc1CCC(=O)O` [Example 310, 3-[3-(3-{3-isopropyl-1-[5-(trifluoromethyl)-2-pyridinyl]-1H-pyrazol-4-yl}propoxy)-1-methyl-1H-pyrazol-4-yl]propanoic acid] had a melting point of 124 to 125 °C.

The molecule `CC(C)c1nn(-c2ccccn2)cc1CCCOc1ccccc1CC(=O)O` [Example 309, (2-{3-[3-isopropyl-1-(2-pyridinyl)-1H-pyrazol-4-yl]propoxy}phenyl)acetic acid] yielded a melting point of 140 to 142 °C.

With `CCOc1nn(-c2ccc(C(F)(F)F)cn2)cc1CCCOc1cc(CCC(=O)O)n(C)n1` [Example 48, 3-[3-(3-{3-ethoxy-1-[5-(trifluoromethyl)-2-pyridinyl]-1H-pyrazol-4-yl}propoxy)-1-methyl-1H-pyrazol-5-yl]propanoic acid], the melting point was 137 to 138 °C.

With `CCCc1nn(-c2ccc(C(F)(F)F)cn2)cc1CCCCOc1cc(CCC(=O)O)n(C)n1` [Example 70, 3-[1-methyl-3-(4-{3-propyl-1-[5-(trifluoromethyl)-2-pyridinyl]-1H-pyrazol-4-yl}butoxy)-1H-pyrazol-5-yl]propanoic acid], the melting point was 122 to 123 °C.

The molecule `CCCc1nn(-c2ccc(C(F)(F)F)cn2)cc1CCCCOc1nn(-c2ccccc2)cc1CC(=O)O` [Example 66, [1-phenyl-3-(4-{3-propyl-1-[5-(trifluoromethyl)-2-pyridinyl]-1H-pyrazol-4-yl}butoxy)-1H-pyrazol-4-yl]acetic acid] had a melting point of 114 to 115 °C.

In turn, `CCCc1nn(-c2ccc(C(F)(F)F)cn2)cc1CCCOc1c(CC)cnn1CC(=O)O` [Example 331, [4-ethyl-5-(3-{3-propyl-1-[5-(trifluoromethyl)-2-pyridinyl]-1H-pyrazol-4-yl}propoxy)-1H-pyrazol-1-yl]acetic acid] returned a melting point of 135 to 136 °C.

The molecule `CCCc1nn(-c2ccc(C(F)(F)F)cn2)cc1CCCOc1nn(-c2ccccc2)cc1CC(=O)O` [Example 67, [1-phenyl-3-(3-{3-propyl-1-[5-(trifluoromethyl)-2-pyridinyl]-1H-pyrazol-4-yl}propoxy)-1H-pyrazol-4-yl]acetic acid] came in with a melting point of 123 to 124 °C.

The molecule `CCOc1cc(OCCCc2cn(-c3ccc(C(F)(F)F)cc3)nc2OCC)ccc1CCC(=O)O` [Example 114, 3-[2-ethoxy-4-(3-{3-ethoxy-1-[4-(trifluoromethyl)phenyl]-1H-pyrazol-4-yl}propoxy)phenyl]propanoic acid] came in with a melting point of 131 to 132 °C.

`CCC(CC)c1nn(-c2ccc(Br)cn2)cc1CCCOc1c(C)cccc1CC(=O)O` [Example 353, (2-{3-[1-(5-bromo-2-pyridinyl)-3-(1-ethylpropyl)-1H-pyrazol-4-yl]propoxy}-3-methylphenyl) acetic acid] returned a melting point of 120 to 121 °C.

`O=C(O)c1ccccc1OCCCc1cc(-c2ccc(C(F)(F)F)cc2)no1` [Example 6, 2-(3-{3-[4-(trifluoromethyl)phenyl]-5-isoxazolyl}propoxy)benzoic acid] yielded a melting point of 132 to 133 °C.

The term melting point denotes the temperature of the solid-liquid transition.

Source of the values: patent publication US20060148858A1, “1, 2-Azole derivatives with hypoglycemic and hypolipidemic activity” (priority 2002, published 2006).
